We go through one molecule from article PMC6941823, “A dispensable paralog of succinate dehydrogenase subunit C mediates standing resistance towards a subclass of SDHI fungicides in Zymoseptoria tritici” (PLoS Pathogens, 2019).

Sequence of SQR of 06STD024 (SDHC / altC) mitochondria (A0A1X7RQW2 36-181): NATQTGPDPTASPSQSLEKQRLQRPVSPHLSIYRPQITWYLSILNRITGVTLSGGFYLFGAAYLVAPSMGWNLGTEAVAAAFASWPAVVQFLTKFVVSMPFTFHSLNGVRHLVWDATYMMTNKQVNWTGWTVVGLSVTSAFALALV
Sequence of SQR of 06STD024 (SDHC / altC) mitochondria (O42772 19-297): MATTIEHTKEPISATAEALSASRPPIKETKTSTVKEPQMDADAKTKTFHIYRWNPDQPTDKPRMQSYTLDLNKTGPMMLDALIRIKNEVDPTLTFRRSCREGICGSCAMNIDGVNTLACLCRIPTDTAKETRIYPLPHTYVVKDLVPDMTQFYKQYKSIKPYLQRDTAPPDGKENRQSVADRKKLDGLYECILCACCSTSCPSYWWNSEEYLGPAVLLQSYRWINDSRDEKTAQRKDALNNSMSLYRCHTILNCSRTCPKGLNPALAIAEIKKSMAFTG
Sequence of SQR of 06STD024 (SDHC / altC) mitochondria (F9X9V6 1-193): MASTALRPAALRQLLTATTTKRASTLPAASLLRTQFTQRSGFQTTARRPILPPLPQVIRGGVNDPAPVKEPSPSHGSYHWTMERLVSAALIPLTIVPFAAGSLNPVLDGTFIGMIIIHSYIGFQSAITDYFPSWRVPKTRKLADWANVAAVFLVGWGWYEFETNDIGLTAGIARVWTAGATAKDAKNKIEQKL
Sequence of SQR of 06STD024 (SDHC / altC) mitochondria (F9XH52 44-187): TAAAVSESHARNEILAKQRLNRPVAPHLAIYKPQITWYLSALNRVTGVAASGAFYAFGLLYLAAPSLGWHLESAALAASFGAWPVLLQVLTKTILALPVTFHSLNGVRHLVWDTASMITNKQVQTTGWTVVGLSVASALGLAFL
Sequence of SQR of 06STD024 (SDHC / altC) mitochondria (F9WWR1 29-643 partner): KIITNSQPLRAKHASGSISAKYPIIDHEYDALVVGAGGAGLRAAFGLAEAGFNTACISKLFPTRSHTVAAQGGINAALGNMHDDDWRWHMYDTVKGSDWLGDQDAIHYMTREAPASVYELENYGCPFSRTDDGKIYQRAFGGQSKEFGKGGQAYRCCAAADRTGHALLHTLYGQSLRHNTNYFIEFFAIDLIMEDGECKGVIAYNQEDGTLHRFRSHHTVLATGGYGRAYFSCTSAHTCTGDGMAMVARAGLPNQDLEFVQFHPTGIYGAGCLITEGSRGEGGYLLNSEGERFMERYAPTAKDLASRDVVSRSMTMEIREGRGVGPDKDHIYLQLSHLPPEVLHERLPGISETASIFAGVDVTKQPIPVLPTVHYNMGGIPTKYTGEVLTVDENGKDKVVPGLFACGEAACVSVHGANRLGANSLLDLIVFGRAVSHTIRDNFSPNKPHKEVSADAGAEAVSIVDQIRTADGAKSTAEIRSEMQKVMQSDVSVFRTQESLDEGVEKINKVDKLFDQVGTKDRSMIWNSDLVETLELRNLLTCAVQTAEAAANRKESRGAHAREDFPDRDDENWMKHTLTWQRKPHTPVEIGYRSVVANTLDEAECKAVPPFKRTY
Sequence of altC-SQR (altC) of D024 SDHC1 KO mitochondria (A0A1X7RQW2 36-181): as the sequence (A0A1X7RQW2 36-181) above
Sequence of altC-SQR (altC) of D024 SDHC1 KO mitochondria (O42772 20-297): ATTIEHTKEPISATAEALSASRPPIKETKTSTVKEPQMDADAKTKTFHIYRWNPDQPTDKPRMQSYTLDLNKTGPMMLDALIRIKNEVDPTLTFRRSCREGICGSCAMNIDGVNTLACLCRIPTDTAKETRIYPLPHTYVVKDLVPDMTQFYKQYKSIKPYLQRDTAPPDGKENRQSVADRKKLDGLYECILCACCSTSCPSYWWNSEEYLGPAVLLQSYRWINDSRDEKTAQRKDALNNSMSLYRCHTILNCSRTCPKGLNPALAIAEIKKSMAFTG
Sequence of altC-SQR (altC) of D024 SDHC1 KO mitochondria (F9X9V6 1-193): as the sequence (F9X9V6 1-193) above
Sequence of altC-SQR (altC) of D024 SDHC1 KO mitochondria (F9WWR1 41-643 partner): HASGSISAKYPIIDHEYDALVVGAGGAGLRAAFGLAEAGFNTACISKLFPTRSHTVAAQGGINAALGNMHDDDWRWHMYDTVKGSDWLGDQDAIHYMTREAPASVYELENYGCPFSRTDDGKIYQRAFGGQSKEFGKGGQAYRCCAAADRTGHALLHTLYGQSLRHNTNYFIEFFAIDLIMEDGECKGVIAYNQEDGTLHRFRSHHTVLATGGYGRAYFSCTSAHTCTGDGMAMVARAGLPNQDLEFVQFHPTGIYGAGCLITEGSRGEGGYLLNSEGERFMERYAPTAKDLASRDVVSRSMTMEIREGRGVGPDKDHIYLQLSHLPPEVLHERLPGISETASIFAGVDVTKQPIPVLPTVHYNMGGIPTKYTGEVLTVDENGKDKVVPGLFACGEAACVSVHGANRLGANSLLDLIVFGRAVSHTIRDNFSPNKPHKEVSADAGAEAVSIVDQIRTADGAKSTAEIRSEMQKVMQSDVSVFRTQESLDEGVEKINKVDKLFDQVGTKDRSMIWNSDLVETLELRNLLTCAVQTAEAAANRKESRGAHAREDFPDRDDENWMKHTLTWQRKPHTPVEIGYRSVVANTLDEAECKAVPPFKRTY
Sequence of WT-SQR (SDHC), IPO323 mitochondria (F9WWR1 entry or part of it): as the sequence (F9WWR1 29-643 partner) above
Sequence of WT-SQR (SDHC), IPO323 mitochondria (F9X9V6 entry or part of it): as the sequence (F9X9V6 1-193) above
Sequence of WT-SQR (SDHC), IPO323 mitochondria (O42772 19-297): as the sequence (O42772 19-297) above
Sequence of WT-SQR (SDHC), IPO323 mitochondria (F9XH52 entry or part of it): as the sequence (F9XH52 44-187) above

The first assay has as its target SQR of 06STD024 (SDHC / altC) mitochondria (Zymoseptoria tritici, UniProt A0A1X7RQW2+F9X9V6+F9XH52+O42772). The assay is described as follows: Succinate-quinone (SQR) SDHI sensitivity assay on purified mitochondria, 06STD024. The class given is biochemical. The conditions noted are these: IC50 ratio compared to IPO323 values. The protocol: (§1) Succinate-ubiquinone oxidoreductase (SQR) inhibition assays were performed on mitochondrial extracts from a panel of strains that were (i) either carrying a unique C-subunit encoding gene (ZtSDHC1, ZtSDHC1_A84I or Zt-SDHC3), or (ii) carrying two C-subunit encoding genes ZtSDHC1 and ZtSDHC3 (Table 1).
(§2) Biomass production, mitochondrial extraction and purification were performed as described in [14]. Succinate: ubiquinone/DCPIP sensitivity tests were performed as described in [14] with minor modification.
Turning to `Cn1cc(C(=O)Nc2cccc3c2[C@@H]2CC[C@H]3C2=C(Cl)Cl)c(C(F)F)n1` (racemic) [Benzovindiflupyr], the “RF (resistance factor), 06STD024 (SDHC / altC)” value was 0.8.

The assay is the same for the next values; noted with them: mitochondria of field isolate 06STD024; mean of three ± SD.
For orientation: IC50 means the concentration needed to halve the response being measured. On to `Cn1cc(C(=O)Nc2cccc3c2[C@@H]2CC[C@H]3C2=C(Cl)Cl)c(C(F)F)n1` (racemic) [Benzovindiflupyr], for which it took 0.5 ± 0.17 nM to reach half-maximal inhibition (IC50).

The subject of another assay is SQR (SDHC / altC) of IPO323 pTet::SDHC3 transformant, induced. The assay is described as follows: Succinate-quinone (SQR) SDHI sensitivity assay on purified mitochondria, IPO323 pTet::SDHC3 induced. The class given is biochemical, Zymoseptoria tritici. The conditions noted are these: IC50 ratio compared to IPO323 values. The protocol: as §1, §2
With `Cn1cc(C(=O)Nc2cccc3c2[C@@H]2CC[C@H]3C2=C(Cl)Cl)c(C(F)F)n1` (racemic) [Benzovindiflupyr], the “RF (resistance factor), pTet Induced (SDHC / altC)” value is reported as 0.8.

Staying with this assay, now noted: IPO323 pTet::SDHC3 transformant grown in the absence of doxycycline; mean of three ± SD.
For `Cn1cc(C(=O)Nc2cccc3c2[C@@H]2CC[C@H]3C2=C(Cl)Cl)c(C(F)F)n1` (racemic) [Benzovindiflupyr], half-maximal inhibition (IC50) required 0.5 ± 0.09 nM.

The next assay has as its target altC-SQR (altC) of D024 SDHC1 KO mitochondria (Zymoseptoria tritici, UniProt A0A1X7RQW2+F9X9V6+O42772). The assay is described as follows: Succinate-quinone (SQR) SDHI sensitivity assay on purified mitochondria, 06STD024 SDHC1 KO. The class given is biochemical. The conditions noted are these: IC50 ratio compared to IPO323 values. The procedure: as §1, §2
With `Cn1cc(C(=O)Nc2cccc3c2[C@@H]2CC[C@H]3C2=C(Cl)Cl)c(C(F)F)n1` (racemic) [Benzovindiflupyr], the “RF (resistance factor), D024 SDHC1 KO (altC)” value was found to be 0.9.

Still in this assay, the particulars now being: mitochondria of 06STD024 ZtSDHC1 deletion mutant (pure altC-SQR); mean of three ± SD.
As to `Cn1cc(C(=O)Nc2cccc3c2[C@@H]2CC[C@H]3C2=C(Cl)Cl)c(C(F)F)n1` (racemic) [Benzovindiflupyr], the IC50 was 0.6 ± 0.05 nM.

The target of another assay is WT-SQR (SDHC), IPO323 mitochondria (Zymoseptoria tritici, UniProt F9X9V6+F9XH52+O42772). In words: Succinate-quinone (SQR) SDHI sensitivity assay on purified mitochondria, IPO323. The class given is biochemical. Conditions: mitochondria of IPO323; mean of three determinations ± SD; read-out: Succinate-quinone IC50, IPO323 (SDHC). The protocol:
as §1
Biomass production, mitochondrial extraction and purification were performed as described in [14]. Succinate: ubiquinone/DCPIP sensitivity tests were performed as described in [14] with minor modification. The different mitochondrial suspensions were adjusted to similar initial velocity (1 OD595nm hour^-1) and inhibitor concentrations ranged between 0.047nM and 50μM with uniform 4x dilution steps (11 concentrations + DMSO control). Calculated absorbance slopes (OD/min) were used for IC50 calculations using GraphPad Prism 6.07 software non-linear curve fitting against log inhibitor concentrations.
For the molecule `Cn1cc(C(=O)Nc2cccc3c2[C@@H]2CC[C@H]3C2=C(Cl)Cl)c(C(F)F)n1` (racemic) [Benzovindiflupyr], the IC50 is 0.7 ± 0.2 nM.

Another assay relates to Zymoseptoria tritici field and genetically modified strains. In words: Liquid culture assay for fungicide sensitivity determination. The class given is cell-based. The conditions noted are these: strain 06STD024; liquid culture sensitivity; read-out: EC50 (nM) Mean. The procedure:
Sensitivity towards commercial fungicides was determined for a set of 99 SHA-SDHI-naïve Z. tritici field isolates sampled in Europe between 2006 and 2009. The EC50 of these isolates was determined in liquid growth assays and the data obtained compared for each possible pair of SDHI fungicides (cross-resistance (XR) plots, Fig 1). […] Comparative succinate-quinone reductase (SQR) enzyme inhibition tests were performed with mitochondria extracted from a panel of SHA-SDHIs tolerant and sensitive isolates.
In order to characterize in more depth the mechanisms driving sensitivity differences across the isolates, a subset of eight isolates carrying the ZtSDHC3 gene was analyzed for their sensitivity to SDHIs, alt-SDHC expression and splicing patterns. Liquid culture growth sensitivity tests were performed to determine EC50s for this set of isolates towards a wide range of commercial and research SDHIs (S5 Table).
Pre-culture of the inoculum and fungicide sensitivity tests were performed following previously described procedures. Different ranges of inhibitor concentrations were used for population monitoring and for the detailed phenotyping of a selected set of individual field isolates and genetically modified strains. For fungicide sensitivity monitoring of European field populations, final inhibitors concentrations were between 100 mg.L^-1 and 0.0001 mg.L^-1 with uniform 10x dilution steps (7 inhibitor concentrations + DMSO control). For refined sensitivity analysis of a smaller panel of isolates final inhibitor concentrations ranged between 0.5 mM and 0.47 nM with uniform 4x dilution factor steps (11 inhibitor concentrations+ DMSO control).
A word on the EC50: it is the concentration giving half of the maximal effect. Consider `Cn1cc(C(=O)Nc2cccc3c2[C@@H]2CC[C@H]3C2=C(Cl)Cl)c(C(F)F)n1` (racemic) [Benzovindiflupyr], for which the EC50 is 17 nM.

Staying with this assay, now noted: strain 07STGB009; liquid culture sensitivity; read-out: EC50 (nM) Mean.
In the case of `Cn1cc(C(=O)Nc2cccc3c2[C@@H]2CC[C@H]3C2=C(Cl)Cl)c(C(F)F)n1` (racemic) [Benzovindiflupyr], the concentration giving a half-maximal response (EC50) amounted to 15 nM.

The same assay, now with this note: strain 09STD041; liquid culture sensitivity; read-out: EC50 (nM) Mean.
With `Cn1cc(C(=O)Nc2cccc3c2[C@@H]2CC[C@H]3C2=C(Cl)Cl)c(C(F)F)n1` (racemic) [Benzovindiflupyr], the half-maximal effective concentration (EC50) came to 54 nM.

Staying with this assay, now noted: strain 09STD053; liquid culture sensitivity; read-out: EC50 (nM) Mean.
Consider `Cn1cc(C(=O)Nc2cccc3c2[C@@H]2CC[C@H]3C2=C(Cl)Cl)c(C(F)F)n1` (racemic) [Benzovindiflupyr], for which the half-maximal effective concentration (EC50) was found to be 88 nM.

The same assay, now with this note: strain 09STF011; liquid culture sensitivity; read-out: EC50 (nM) Mean.
Turning to `Cn1cc(C(=O)Nc2cccc3c2[C@@H]2CC[C@H]3C2=C(Cl)Cl)c(C(F)F)n1` (racemic) [Benzovindiflupyr], the EC50 worked out at 96 nM.

The same assay, now with this note: strain 09STF037; liquid culture sensitivity; read-out: EC50 (nM) Mean.
As to `Cn1cc(C(=O)Nc2cccc3c2[C@@H]2CC[C@H]3C2=C(Cl)Cl)c(C(F)F)n1` (racemic) [Benzovindiflupyr], the concentration giving a half-maximal response (EC50) was determined as 54 nM.

The assay is the same for the next values; noted with them: strain 09STF112; liquid culture sensitivity; read-out: EC50 (nM) Mean.
With `Cn1cc(C(=O)Nc2cccc3c2[C@@H]2CC[C@H]3C2=C(Cl)Cl)c(C(F)F)n1` (racemic) [Benzovindiflupyr], the EC50 came out at 204 nM.

Staying with this assay, now noted: strain 09STIR20.3; liquid culture sensitivity; read-out: EC50 (nM) Mean.
`Cn1cc(C(=O)Nc2cccc3c2[C@@H]2CC[C@H]3C2=C(Cl)Cl)c(C(F)F)n1` (racemic) [Benzovindiflupyr]: the EC50 stood at 147 nM.

Staying with this assay, now noted: strain Flu21 (SDHC1_A84I); liquid culture sensitivity; read-out: EC50 (nM) Mean.
For `Cn1cc(C(=O)Nc2cccc3c2[C@@H]2CC[C@H]3C2=C(Cl)Cl)c(C(F)F)n1` (racemic) [Benzovindiflupyr], the EC50 turned out to be 927 nM.

Still in this assay, the particulars now being: strain IPO323; liquid culture sensitivity; read-out: EC50 (nM) Mean.
With `Cn1cc(C(=O)Nc2cccc3c2[C@@H]2CC[C@H]3C2=C(Cl)Cl)c(C(F)F)n1` (racemic) [Benzovindiflupyr], the 50% effective concentration (EC50) was 39 nM.

The same assay, now with this note: strain IPO94269; liquid culture sensitivity; read-out: EC50 (nM) Mean.
On to `Cn1cc(C(=O)Nc2cccc3c2[C@@H]2CC[C@H]3C2=C(Cl)Cl)c(C(F)F)n1` (racemic) [Benzovindiflupyr], for which the 50% effective concentration (EC50) came to 108 nM.
